The values below come from paper PMC6368574, “Probing the Inhibition of Microtubule Affinity Regulating Kinase 4 by N-Substituted Acridones” (Scientific Reports, 2019).

Read-outs that look alike come from different tables or passages of the source.

Data set [1] addresses T1, recombinant MARK4 (Homo sapiens, UniProt Q96L34).
T1 construct: made in house; host or cells: bacterial cells (Luria-Bertani broth, IPTG induction)
T1 sequence (Q96L34 1-752): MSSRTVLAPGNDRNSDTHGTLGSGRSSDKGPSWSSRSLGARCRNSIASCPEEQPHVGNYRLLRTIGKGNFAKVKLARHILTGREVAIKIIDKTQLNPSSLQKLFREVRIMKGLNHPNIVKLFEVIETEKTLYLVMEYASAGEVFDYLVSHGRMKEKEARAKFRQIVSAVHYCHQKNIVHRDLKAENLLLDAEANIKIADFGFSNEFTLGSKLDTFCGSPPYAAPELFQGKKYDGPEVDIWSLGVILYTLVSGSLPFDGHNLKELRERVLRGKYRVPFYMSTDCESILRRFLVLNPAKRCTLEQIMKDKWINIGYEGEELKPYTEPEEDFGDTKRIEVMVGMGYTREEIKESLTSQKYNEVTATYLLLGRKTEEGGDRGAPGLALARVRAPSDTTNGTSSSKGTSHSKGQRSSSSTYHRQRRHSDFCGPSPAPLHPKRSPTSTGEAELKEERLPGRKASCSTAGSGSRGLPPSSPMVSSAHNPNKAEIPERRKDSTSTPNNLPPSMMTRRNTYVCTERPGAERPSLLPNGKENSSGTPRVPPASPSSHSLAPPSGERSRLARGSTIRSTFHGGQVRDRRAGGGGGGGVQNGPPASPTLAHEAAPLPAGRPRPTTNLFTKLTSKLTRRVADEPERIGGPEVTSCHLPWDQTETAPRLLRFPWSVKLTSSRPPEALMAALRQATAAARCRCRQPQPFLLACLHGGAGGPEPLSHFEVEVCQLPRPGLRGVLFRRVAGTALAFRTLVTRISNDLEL
Briefly: Fluorescence binding (quenching, modified Stern-Volmer). To be noted: Table S3; fluorescence binding; read-out: Binding affinity (Ka) (converted). The method, then:
To determine the binding affinities of the synthesized acridones with MARK4, we used fluorescence emission spectra measurements. Protein sample was excited at 280 nm and emission was measured in 300–400 nm range with increasing concentrations of each acridone derivative (0–100 µM). A significant decrease in fluorescence intensity of MARK4 with increasing concentrations of each compound was fitted in the modified Stern-Volmer equation to calculate the binding constant, Ka and the number of binding sites per protein molecule (n). All the synthesized acridones have been screened (Supplementary Fig. S6, S7 and Table S3) and those with the highest affinity have been selected (compounds 5, 7b, 7d, 7f and 7h) for further evaluation (Fig. 3). The binding constants of compound 5, 7b, 7d, 7f and 7h were estimated as 6.3 × 10^4 M^−1, 1.0 × 10^6 M^−1, 1.0 × 10^6 M^−1, 1.9 × 10^6 M^−1, and 3.1 × 10^5 M^−1, respectively (Fig. 3).
Figure 3 Fluorescence binding studies of compound 5, 7b, 7d, 7f and 7h with MARK4. (A) Fluorescence emission spectra of MARK4 (10 µM) with increasing concentrations of the respective compound (5, 7b, 7d, 7f and 7h). Excitation wavelength was fixed at 280 nm and emission was recorded in 300–400 nm range. (B) Modified Stern-Volmer plot obtained from fluorescence quenching of MARK4 by compound 5, 7b, 7d, 7f and 7h, respectively. It was used to calculate binding affinity (Ka) and number of binding sites (n).
Binding affinities of synthesized acridone derivatives with recombinant MARK4 was carried out by observing the fluorescence intensity change of emission spectrum of MARK4 by following our previously published protocol[44],[45]. Each titration of protein was performed in triplicates and the average was taken for analysis. A significant decreased in fluorescence intensity of protein with increase in the concentration of acridone derivatives were used as the criteria for deducing the binding constant (Ka) as well as number of binding sites (n) present on the protein molecule using the modified Stern-Volmer equation[46]:1 log(Fo−F)/F=logKa+nlog[L] where, Fo = Fluorescence intensity of native protein, F = Fluorescence intensity of protein in the presence of ligand, Ka = Binding constant, n = number of binding sites, L = concentration of ligand. The values for Ka and n were derived from the intercept and slope, respectively.

Data set [2] addresses T1, recombinant MARK4. Briefly: ATPase enzyme inhibition assay (Malachite Green). In kind it is biochemical. The method, then: To evaluate the inhibition activity of synthesized acridone derivatives against recombinant MARK4, ATPase enzyme inhibition assay was performed (Table S3). […] Our studies were initiated by replacing the ester group of 5 with sterically and electronically diverse amines affording the corresponding amides 7a–j, in order to establish favorable interactions with residues Ala135, Val70, Asp196 and/or Glu182. […] In this case, the docking studies indicate a better fit of 7h compared with 7g in the active site of MARK4 with a binding energy of −9.5 kcal/mol and a stronger predicted hydrogen bond with Ala135 (3.06 Å for 7h, 3.19 Å for 7g).
Enzyme activity of MARK4 was evaluated with the help of standard Malachite Green (Biomol Green reagent, Enzo Life Sciences) microtitre-plate assay as described earlier. Estimated amount of MARK4 (200 ng) and 20 µM ATP as a substrate were incubated for 10–15 min at 25 °C with increasing concentrations (0–20 µM) of synthesized acridone derivatives, in 20 mM Tris buffer, pH 8.0. Reaction was terminated by the adding 100 µl of Biomol Green reagent and absorbance of final reaction products was recorded at 620 nm in a multiplate ELSIA reader (BioRad). In order to quantify the hydrolyzed phosphate, inorganic phosphate standard curve were prepared from the phosphate standard solutions as supplied by the manufacturer (Biomol Green reagent, Enzo Life Sciences). All data points represent triplicate measurements from at least three independent experiments.

For the next data set, the system named is MCF-7 cells. Briefly: MTT cell viability assay, MCF-7. To be noted: Homo sapiens, MCF7; Table S2; MTT; read-out: IC50 (µM) MCF-7. It counts as cell-based. How it is done:
(§1) Initially, all synthesized acridone derivatives were evaluated for their cytotoxicity potential on MCF-7, HepG2 and HEK293 cell lines by MTT assay. These synthesized acridone derivatives were screened in the concentration range of 0–200 µM, for 24 and 48 h. […] It was also interesting that in the studied […] concentration range these compounds don’t show considerable cytotoxicity towards HEK293 cell lines. […] Thus, compounds 5, 7b, 7d, 7f and 7h were taken for further cell based studies such as apoptosis and reactive oxygen species (ROS) production.
(§2) To study the effect of synthesized acridone derivatives on cell viability and proliferation, a standard MTT method was carried out. Cells were plated (8000–9000/well) in a 96-well plate and incubated overnight. On the next day, cells were treated with increasing concentrations (0.1–80 μM) of synthesized acridone derivatives in a final volume of 200 µl for 48 h at 37 °C in a humidified chamber. At the end of treatment time point, 20 µl of MTT solution (from 5 mg/ml stock solution in phosphate buffer saline, pH 7.4) was added to each well and incubated further for 4–5 h at 37 °C in the CO2 incubator. After stipulated time the supernatant was aspirated and the colored formazan crystal produced as a result of MTT reduction was dissolved in 100 µl of DMSO. The absorbance (A) of colored product was then measured at 570 nm on a multiplate ELISA reader (BioRad). The percentage of viable cells was calculated and used to estimate the IC50 (50% inhibitory concentration) values for each acridone derivative. For cell proliferation studies paclitaxel has been taken as positive control.

The subject of a further data set is HepG2 cells. The data set can be described thus: MTT cell viability assay, HepG2. It counts as cell-based. The settings on record: Homo sapiens, Table S2. How it is done: as §1, §2
In the next data set the test system is HEK293 cells. The data set can be described thus: MTT cell viability assay, HEK293. In kind it is cell-based. The settings on record: Homo sapiens, Table S2. The method, then:
as §1, §2

A further data set deals with MARK2. Details: method as in PMID 21984823. To be noted: cited from earlier work.
The mark [3] stands for this setting: Table S3, read-out: IC50, (µM), for MARK4 Inhibition.
[4] abbreviates: ATPase inhibition, 20 µM ATP, read-out: IC50 against MARK4.

With `Cc1ccc2c(c1)c(=O)c1ccccc1n2CC(=O)N1CCOCC1` [Compound 7a, 2-Methyl-10-(2-morpholino-2-oxoethyl)acridin-9(10H)-one], the Kd on recombinant MARK4 [1] was 501 µM. Further, the 50% inhibitory concentration (IC50) on recombinant MARK4 [2] (setting [3]) is greater than 20 µM; in the data set on MCF-7 cells, 12.3 µM; with HepG2 cells, 24.3 µM; in the data set on HEK293 cells it was greater than 200 µM.
`Cc1ccc2c(c1)c(=O)c1ccccc1n2CC(=O)N(C)Cc1ccccc1` [Compound 7c, N-benzyl-N-methyl-2-(2-methyl-9-oxoacridin-10(9 H)-yl)acetamide] yielded a melting point of 131 to 141 °C. Further, on recombinant MARK4 [1], the Kd was 501 µM. The “MARK4 inhibition, comparison in words” value on recombinant MARK4 [2] (ATPase inhibition) is recorded as “much weaker inhibitor”. Further, the IC50 at recombinant MARK4 [2] (setting [3]) is greater than 20 µM. For the same molecule, in the data set on MCF-7 cells, the IC50 amounted to 11.9 µM. Further, the concentration for half-maximal inhibition (IC50) in the data set with HepG2 cells is 19.4 µM. In the data set with HEK293 cells, this molecule displayed an IC50 greater than 200 µM.
With `Cc1ccc2c(c1)c(=O)c1ccccc1n2CC(=O)Nc1ccccc1` [Compound 7e, 2-(2-Methyl-9-oxoacridin-10(9H)-yl)-N-phenylacetamide], the melting point lay in the range of 290 to 293 °C. In addition, at recombinant MARK4 [1], the Kd is 1580 µM. Also, the “MARK4 inhibition, comparison in words” value on recombinant MARK4 [2] (ATPase inhibition) was “less potent than 7b”. In addition, the IC50 on recombinant MARK4 [2] (setting [3]) is greater than 20 µM. In addition, the IC50 in the data set with MCF-7 cells amounted to 13.8 µM. In the data set on HepG2 cells, this molecule showed a half-maximal inhibitory concentration (IC50) of 23.8 µM. For the same molecule, in the data set on HEK293 cells, the IC50 was greater than 200 µM.
In turn, `COc1ccc(NC(=O)Cn2c3ccccc3c(=O)c3cc(C)ccc32)cc1` [Compound 7g, N-(4-methoxyphenyl)-2-(2-methyl-9-oxoacridin-10(9H)-yl)acetamide] gave a melting point of 282 to 286 °C. Besides, the Kd at recombinant MARK4 [1] is 158 µM. The IC50 on recombinant MARK4 [2] (setting [4]) was greater than 20 µM. Besides, the IC50 at recombinant MARK4 [2] (setting [3]) is greater than 20 µM. Besides, the IC50 in the data set with MCF-7 cells was found to be 14.3 µM. The same molecule showed a half-inhibitory concentration (IC50) in the data set with HepG2 cells of 21.2 µM. This molecule came in with an IC50 in the data set with HEK293 cells greater than 200 µM.
`COC(=O)c1ccc(NC(=O)Cn2c3ccccc3c(=O)c3cc(C)ccc32)cc1` [Compound 7i, Methyl 4-(2-(2-methyl-9-oxoacridin-10(9H)-yl)acetamido)benzoate]: at recombinant MARK4 [1], the Kd was 1580 µM. The IC50 at recombinant MARK4 [2] (setting [4]) is greater than 20 µM; with MCF-7 cells, 14.1 µM; with HepG2 cells, 25.1 µM; in the data set on HEK293 cells, greater than 200 µM.
In turn, `CC(=O)c1ccc(NC(=O)Cn2c3ccccc3c(=O)c3cc(C)ccc32)cc1` [Compound 7j, N-(4-acetylphenyl)-2-(2-methyl-9-oxoacridin-10(9H)-yl)acetamide] yielded a melting point of 306 to 309 °C. Moreover, the Kd at recombinant MARK4 [1] is 501 µM. The IC50 at recombinant MARK4 [2] (setting [4]) is greater than 20 µM. Further, in the data set with MCF-7 cells, the IC50 was 16.3 µM. In the data set on HepG2 cells, half-maximal inhibition (IC50) required 24.4 µM. The same molecule yielded an IC50 with HEK293 cells greater than 200 µM.
Take `COc1ccc2c(c1)c(=O)c1ccccc1n2CC(=O)Nc1cccc(C(F)(F)F)c1` [Compound 30019]: in the data set on MARK2, the IC50 was less than 10 µM.
As for `O=C(Cn1c2ccccc2c(=O)c2ccccc21)Oc1ccccc1F` [Compound 30195], in the data set with MARK2, the IC50 is less than 10 µM.
For `N#Cc1ccc(NC(=O)Cn2c3ccccc3c(=O)c3ccccc32)cc1` [Compound 30197], the IC50 with MARK2 was less than 10 µM.
Take `CCOC(=O)c1cnc(NC(=O)Cn2c3ccccc3c(=O)c3ccccc32)s1` [Compound 30199]: the half-maximal inhibitory concentration (IC50) with MARK2 is less than 10 µM.
